Measured values as given in the supplement of paper PMC11208160.

Test: recombinant UMI read abundance after kanamycin selection (control-corrected) (log10(CPM+1)); higher = more efficient recombination; extreme values may be limits of the assay; sequences stand for … in AGTGCAGAGAAAATCGGCCAGTTTTCTCTGCCTGCAGTCCGCATGCCGTGGGACCCCTTGGGTTCTAACCTGTTGCCTAGATTTATGCAGCGGACTGCCTTTCTCCCAAAGTGATAAACCGG…AGGTTGGTTTCACT; site = the 11-nt donor
Procedure, shortened: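 Values, expressed as log10(CPM+1), derive from recombinant UMI counts converted to CPM, averaged across replicates and scaled by control-derived factors. Plating was with IPTG (0.07 mM) plus kanamycin or unselected, two replicates each. The screen pooled donor and donor-binding-loop pairs for the IS621 bridge recombinase in Escherichia coli.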
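Also: IS621 bridge recombinase in Escherichia coli cells against a fixed T5 target plasmid.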

| Sequence | recombinant UMI read abundance (log10) |
| --- | --- |
| TGTGCGGCATGGACCGGTTTTCCCGGTAATCCGTATTTGCT (site TGTGCGGCTAG) | 0.57 |
| GAGAAACCATGGACCGGTTTTCCCGGTAATCCGTATTTGGT (site GAAAAACCTAC) | 0 |
| CGAGGCCCATGGACCGGTTTTCCCGGTAATCCGTATTTGGG (site CGAGGCCCTCC) | 0.0196 |
| ACAGTAGCATGGACCGGTTTTCCCGGTAATCCGTATTTGCG (site ACAGTATCTTG) | 0.736 |
| ATTGAAACATGGACCGGTTTTCCCGGTAATCCGTATTTGGC (site ATTGAAACTGC) | 2.15 |
| CCCTTGGCATGGACCGGTTTTCCCGGTAATCCGTATTTGGA (site CACTTGGCTTC) | 0.0394 |
| TAGCCTCCATGGACCGGTTTTCCCGGTAATCCGTATTTGGT (site TAGCCTTCTAC) | 0 |
| AGGTAGGCATGGACCGGTTTTCCCGGTAATCCGTATTTGGC (site AGGTAGGCTGC) | 2.65 |
| GAAACTACATGGACCGGTTTTCCCGGTAATCCGTATTTGCC (site GAAACTACTGG) | 1.88 |
| AATTAATCATGGACCGGTTTTCCCGGTAATCCGTATTTGAT (site AATTAATCTAT) | 1.47 |
| TCAAGCACATGGACCGGTTTTCCCGGTAATCCGTATTTGAT (site TCAAGCACTAT) | 1.94 |
| TCTAAGGCATGGACCGGTTTTCCCGGTAATCCGTATTTGGT (site TCTAAGGCTAC) | 0.43 |
| ATGTAGGCATGGACCGGTTTTCCCGGTAATCCGTATTTGGG (site ATGTAGGCTAC) | 0.251 |
| CCTAAAGCATGGACCGGTTTTCCCGGTAATCCGTATTTGAA (site CCTAAAGCTTT) | 0.699 |
| ACTAGGGCATGGACCGGTTTTCCCGGTAATCCGTATTTGGT (site ACTAGTGCTAC) | 0.0165 |
| CCCATATCATGGACCGGTTTTCCCGGTAATCCGTATTTGGC (site CCCATATCTGC) | 0 |
| GGTTTGGCATGGACCGGTTTTCCCGGTAATCCGTATTTGCT (site CGTTTGGCTAG) | 0 |
| GTGCAAACATGGACCGGTTTTCCCGGTAATCCGTATTTGTG (site GTGCAAACTCA) | 2.04 |
| AATTATGCATGGACCGGTTTTCCCGGTAATCCGTATTTGTA (site AATTATGCTTG) | 0.00449 |
| TGCTAGTCATGGACCGGTTTTCCCGGTAATCCGTATTTGGT (site TGCTAGGCTAC) | 0.00963 |
| GTGGCGCCATGGACCGGTTTTCCCGGTAATCCGTATTTGTA (site GTGGCGCCTTA) | 0.00916 |
| GTTCTCCCATGGACCGGTTTTCCCGGTAATCCGTATTTGCG (site GTTCTCCCTCG) | 0.002 |
| AGTAAGCCATGGACCGGTTTTCCCGGTAATCCGTATTTGCA (site AGGAAGACTTG) | 0 |
| GAATCGTCATGGACCGGTTTTCCCGGTAATCCGTATTTGCA (site GAATCGTCTTG) | 2.71 |
| CGTTAGACATGGACCGGTTTTCCCGGTAATCCGTATTTGAA (site CGTTAGACTTT) | 1.33 |

| Sequence | recombinant UMI read abundance (log10) |
| --- | --- |
| ACCAGTGCATGGACCGGTTTTCCCGGTAATCCGTATTTGGT (site ACCAGTGCTAC) | 0.472 |
| CGGACATCATGGACCGGTTTTCCCGGTAATCCGTATTTGCA (site CGGACATCTTG) | 2.76 |
| CCCTCCTCATGGACCGGTTTTCCCGGTAATCCGTATTTGAG (site CCCTCCTCTCT) | 0.256 |
| GGATAGACATGGACCGGTTTTCCCGGTAATCCGTATTTGCC (site GGATACACTGG) | 1.54 |
| CTGGTACCATGGACCGGTTTTCCCGGTAATCCGTATTTGCT (site CTGGTACCTAG) | 0 |
| ATCCCTGCATGGACCGGTTTTCCCGGTAATCCGTATTTGTG (site ATCCCTGCTCA) | 0.13 |
| GTGCATCCATGGACCGGTTTTCCCGGTAATCCGTATTTGCA (site GTGCATCCTTG) | 1.03 |
| CTGCTACCATGGACCGGTTTTCCCGGTAATCCGTATTTGCT (site ATGCTACCTAG) | 0.00358 |
| TACTTTCCATGGACCGGTTTTCCCGGTAATCCGTATTTGCG (site TACTTTCCTCG) | 1.29 |
| ACTAGCGCATGGACCGGTTTTCCCGGTAATCCGTATTTGGT (site ACTAGCGCTAC) | 1.86 |
| CGCACTCCATGGACCGGTTTTCCCGGTAATCCGTATTTGTT (site CGGAATCCTAA) | 0 |
| TCACGAACATGGACCGGTTTTCCCGGTAATCCGTATTTGTC (site ACACGAACTGA) | 0 |
| ACTCCAACATGGACCGGTTTTCCCGGTAATCCGTATTTGCT (site ACTCCAACTAG) | 1.66 |
| TAATGCGCATGGACCGGTTTTCCCGGTAATCCGTATTTGGG (site TAATGGGCTCC) | 0.0249 |
| TCCAATTCATGGACCGGTTTTCCCGGTAATCCGTATTTGTC (site TCCAATTCTGA) | 0 |
| GGTACCTCATGGACCGGTTTTCCCGGTAATCCGTATTTGTT (site GGTACATCTAA) | 0.0159 |
| CAGATCCCATGGACCGGTTTTCCCGGTAATCCGTATTTGGT (site CAGATCCCTAC) | 1.42 |
| TTGCAAGCATGGACCGGTTTTCCCGGTAATCCGTATTTGCT (site TTGCAAGCTAG) | 0 |
| CTCCCAACATGGACCGGTTTTCCCGGTAATCCGTATTTGAG (site CTCCCCACTCT) | 0.00702 |
| CCAAATACATGGACCGGTTTTCCCGGTAATCCGTATTTGGC (site CCAAATACTGC) | 0 |
| GGCAGCCCATGGACCGGTTTTCCCGGTAATCCGTATTTGAC (site GGCAGCCCTGT) | 0 |
| TGTACACCATGGACCGGTTTTCCCGGTAATCCGTATTTGAC (site TGTACACCTGC) | 0 |
| GGTGCACCATGGACCGGTTTTCCCGGTAATCCGTATTTGCA (site GGAGCACCTTG) | 0.00431 |
| CCCTCCTCATGGACCGGTTTTCCCGGTAATCCGTATTTGGG (site CCCTGCTCTCC) | 0 |
| GCGACAACATGGACCGGTTTTCCCGGTAATCCGTATTTGCT (site GCGAGAACTAG) | 0 |

| Sequence | recombinant UMI read abundance (log10) |
| --- | --- |
| TCATACCCATGGACCGGTTTTCCCGGTAATCCGTATTTGCA (site TCATACTCTTG) | 0.995 |
| AATGTACCATGGACCGGTTTTCCCGGTAATCCGTATTTGCG (site AATGTACCTCG) | 0.0178 |
| CAAGCAGCATGGACCGGTTTTCCCGGTAATCCGTATTTGCC (site CAAGCAGCTGG) | 2.75 |
| ATGAACTCATGGACCGGTTTTCCCGGTAATCCGTATTTGGG (site ATGAACTCTCC) | 1.08 |
| ACACATCCATGGACCGGTTTTCCCGGTAATCCGTATTTGAC (site ACACACCCTGT) | 0.501 |
| CAATGCTCATGGACCGGTTTTCCCGGTAATCCGTATTTGAG (site CAATGCTCTCT) | 2.2 |
| AGCAGTGCATGGACCGGTTTTCCCGGTAATCCGTATTTGAG (site AGCAGTGCTCT) | 1.93 |
| CATTTGGCATGGACCGGTTTTCCCGGTAATCCGTATTTGTG (site TATTTGGCTCA) | 0.106 |
| CAAGCATCATGGACCGGTTTTCCCGGTAATCCGTATTTGCT (site CAAGCAACTAG) | 0 |
| CGGCCGGCATGGACCGGTTTTCCCGGTAATCCGTATTTGGC (site TGGCCGGCTGC) | 0 |
| GCCACTCCATGGACCGGTTTTCCCGGTAATCCGTATTTGTA (site GCCACTCCTTA) | 1.35 |
| CCCAAGCCATGGACCGGTTTTCCCGGTAATCCGTATTTGCC (site CCCAAGCCTGG) | 0 |
| TCATACTCATGGACCGGTTTTCCCGGTAATCCGTATTTGCA (site TCACACTCTTG) | 1.3 |
| TCATACGCATGGACCGGTTTTCCCGGTAATCCGTATTTGCA (site TCATACTCTTG) | 0.604 |
| CGATCAACATGGACCGGTTTTCCCGGTAATCCGTATTTGCG (site CGATCAACTCG) | 0.894 |
| AGGACTACATGGACCGGTTTTCCCGGTAATCCGTATTTGAA (site AGGACTACTAT) | 1.41 |
| GGACAGACATGGACCGGTTTTCCCGGTAATCCGTATTTGCC (site GGATAGACTGG) | 1.84 |
| CGGACAACATGGACCGGTTTTCCCGGTAATCCGTATTTGCT (site CGGACATCTAG) | 2.39 |
| CCCGTTCCATGGACCGGTTTTCCCGGTAATCCGTATTTGCA (site CCCGGTCCTTG) | 0 |
| GAGGATTCATGGACCGGTTTTCCCGGTAATCCGTATTTGTT (site GATGATTCTAA) | 0.0156 |
| TACGTGACATGGACCGGTTTTCCCGGTAATCCGTATTTGCT (site TACGTGACTAG) | 2.43 |
| TGTTCCCCATGGACCGGTTTTCCCGGTAATCCGTATTTGTA (site GGTTCCCCTTA) | 0.00981 |
| GTATGCACATGGACCGGTTTTCCCGGTAATCCGTATTTGTA (site GTTTGCACTTA) | 0 |
| GTTGACACATGGACCGGTTTTCCCGGTAATCCGTATTTGAA (site GTTGACACTTT) | 0.918 |
| GAGACGACATGGACCGGTTTTCCCGGTAATCCGTATTTGGG (site GAGACGACTCC) | 0.501 |
